Laboratory results taken from ChEMBL document CHEMBL1157922, “Design of new dopamine D2 receptor ligands: biosynthesis and pharmacological evaluation of the hydroxylated metabolite of LASSBio-581” (Bioorg Med Chem Lett, 2010).

Experiments:
[1] = Displacement of [3H]YM-9151-2 from D2 like receptor in rat striatal membrane; format: cell membranes, Striatum
[2] = molecular target: 5-hydroxytryptamine receptor 2A (Rattus norvegicus, UniProt P14842); test: Displacement of [3H]ketanserin from 5HT2A receptor in rat cortex membrane; format: cell membranes
Chain of 5-hydroxytryptamine receptor 2A (P14842 whole entry): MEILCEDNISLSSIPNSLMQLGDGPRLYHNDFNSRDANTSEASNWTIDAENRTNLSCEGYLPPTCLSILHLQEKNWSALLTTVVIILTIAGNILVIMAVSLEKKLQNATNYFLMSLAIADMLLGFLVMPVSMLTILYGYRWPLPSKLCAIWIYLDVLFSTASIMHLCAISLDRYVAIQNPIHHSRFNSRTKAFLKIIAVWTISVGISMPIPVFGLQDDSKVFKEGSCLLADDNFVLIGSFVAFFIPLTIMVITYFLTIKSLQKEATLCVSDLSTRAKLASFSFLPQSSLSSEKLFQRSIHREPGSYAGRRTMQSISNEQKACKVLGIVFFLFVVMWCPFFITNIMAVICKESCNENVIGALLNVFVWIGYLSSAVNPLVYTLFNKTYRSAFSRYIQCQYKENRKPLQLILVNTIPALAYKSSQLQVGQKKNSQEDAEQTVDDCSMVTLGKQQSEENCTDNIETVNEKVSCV

Row | SMILES | Ki [1] | Ki [2]
1 | Oc1ccc(N2CCN(Cc3cn(-c4ccc(Cl)cc4)nn3)CC2)cc1 | 1700 nM | 
2 | Clc1ccc(-n2cc(CN3CCN(c4ccccc4)CC3)nn2)cc1 | 950 nM | 11000 nM
